From PubChem BioAssay AID1963964 (Molecular Pharmacology Branch, DTP, NCI, 2024)

System: 997726-040-R-J2-PDC tumor spheroids, viability
Experiment: Anticancer human tumor 997726-040-R-J2-PDC patient-derived squamous cell lung carcinoma cell line growth inhibition [PI3K]
Conditions: spheroids with HUVEC and MSC; for IC50: curve of first compound; for viability, T/C: stronger effect = lower value
Outline: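 Multi-cell spheroids combine tumor cells with HUVEC and human MSCs, treated with targeted agents alone or with inavolisib, alpelisib, duvelisib or copanlisib. Concentrations fall in half-log steps from at or near clinical Cmax, or from 10 microM where Cmax is unknown; viability read-out.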
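Further: spheroids exposed to compounds for seven days before readout.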

C[C@@H](NC(=O)c1ncnc(N)c1Cl)c1ncc(C(=O)Nc2cc(C(F)(F)F)c(Cl)cn2)s1 + Cc1nc(NC(=O)N2CCCC2C(N)=O)sc1-c1ccnc(C(C)(C)C(F)(F)F)c1
IC50 (second compound 0.0316 µM): > 10000 nM
IC50 (second compound 0.1 µM): > 10000 nM
IC50 (second compound 0.316 µM): > 10000 nM
IC50 (second compound 1 µM): 58.9 nM
IC50 (second compound 3.16 µM): < 31.6 nM
IC50 (second compound 10 µM): < 31.6 nM
viability, T/C (second compound 0.0316 µM, first compound 0.0316 µM): 101%
viability, T/C (second compound 0.0316 µM, first compound 0.1 µM): 115%
viability, T/C (second compound 0.0316 µM, first compound 0.316 µM): 111%
viability, T/C (second compound 0.0316 µM, first compound 1 µM): 107%
viability, T/C (second compound 0.0316 µM, first compound 3.16 µM): 102%
viability, T/C (second compound 0.0316 µM, first compound 10 µM): 68.2%
viability, T/C (second compound 0.1 µM, first compound 0.0316 µM): 96%
viability, T/C (second compound 0.1 µM, first compound 0.1 µM): 97.5%
viability, T/C (second compound 0.1 µM, first compound 0.316 µM): 99.5%
viability, T/C (second compound 0.1 µM, first compound 1 µM): 83.9%
viability, T/C (second compound 0.1 µM, first compound 3.16 µM): 66.3%
viability, T/C (second compound 0.1 µM, first compound 10 µM): 60.2%
viability, T/C (second compound 0.316 µM, first compound 0.0316 µM): 64.7%
viability, T/C (second compound 0.316 µM, first compound 0.1 µM): 62.4%
viability, T/C (second compound 0.316 µM, first compound 0.316 µM): 66.8%
viability, T/C (second compound 0.316 µM, first compound 1 µM): 76.3%
viability, T/C (second compound 0.316 µM, first compound 3.16 µM): 61.3%
viability, T/C (second compound 0.316 µM, first compound 10 µM): 47.7%
viability, T/C (second compound 1 µM, first compound 0.0316 µM): 49.4%
viability, T/C (second compound 1 µM, first compound 0.1 µM): 49.5%
viability, T/C (second compound 1 µM, first compound 0.316 µM): 45.3%
viability, T/C (second compound 1 µM, first compound 1 µM): 48.6%
viability, T/C (second compound 1 µM, first compound 3.16 µM): 42.8%
viability, T/C (second compound 1 µM, first compound 10 µM): 35.4%
viability, T/C (second compound 3.16 µM, first compound 0.0316 µM): 36.6%
viability, T/C (second compound 3.16 µM, first compound 0.1 µM): 39.9%
viability, T/C (second compound 3.16 µM, first compound 0.316 µM): 34.5%
viability, T/C (second compound 3.16 µM, first compound 1 µM): 33%
viability, T/C (second compound 3.16 µM, first compound 3.16 µM): 35.9%
viability, T/C (second compound 3.16 µM, first compound 10 µM): 21.2%
viability, T/C (second compound 10 µM, first compound 0.0316 µM): 15%
viability, T/C (second compound 10 µM, first compound 0.1 µM): 15.4%
viability, T/C (second compound 10 µM, first compound 0.316 µM): 18.4%
viability, T/C (second compound 10 µM, first compound 1 µM): 18.8%
viability, T/C (second compound 10 µM, first compound 3.16 µM): 19.6%
viability, T/C (second compound 10 µM, first compound 10 µM): 8.61%
